Consider three compounds from ChEMBL document CHEMBL1158919, “Antiviral Activity of Ternatin and Meliternatin, 3-Methoxyflavones from Species of Rutaceae” (J Nat Prod, 1990).

SMILES strings stand for the structures. pEC50: −log10 of the molar value. Activity calls are given as the source filed them. No cut-off for these calls is given here.

Series [1] concerns Vero. Nature of the series: Cytotoxicity against african green monkey Vero cells up to 800 uM after 96 hrs. It counts as cell-based. Particulars: chlorocebus sabaeus.
Series [2] relates to Human adenovirus 2. The series is described as follows: Antiviral activity against Human adenovirus 2 infected in african green monkey Vero cells assessed as log reduction in viral titer. Format: functional.
Series [3] has as its system Vesicular stomatitis virus. Nature of the series: Antiviral activity against 10^-2 MOI VSV infected in african green monkey Vero cells assessed as inhibition of virus-induced cytopathic effect. It counts as functional. Particulars: read-out: ED50 (the source's name).
Series [4] can be described thus: Therapeutic index, ratio of CyD50 for african green monkey Vero cells to ED50 for 10^-2 MOI VSV. Format: cell-based. Particulars: read-out: TI.
Series [5] is described as follows: Therapeutic index, ratio of CyD50 for african green monkey Vero cells to ED50 for 10^-3 MOI Human adenovirus 2. It counts as cell-based. Particulars: read-out: TI.
Series [6] in a line: Therapeutic index, ratio of CyD50 for african green monkey Vero cells to ED50 for 10^-2 MOI HSV2. It counts as cell-based. Particulars: read-out: TI.
Series [7] has as its system Vesicular stomatitis virus. Nature of the series: Antiviral activity against 10^-3 MOI VSV infected in african green monkey Vero cells assessed as inhibition of virus-induced cytopathic effect. Particulars: read-out: ED50 (the source's name). Format: functional.
Series [8] concerns Vero. Nature of the series: Cytotoxicity against african green monkey Vero cells up to 200 uM after 96 hrs. It counts as cell-based. Particulars: chlorocebus sabaeus.
For series [9], the system named is Human alphaherpesvirus 1. Nature of the series: Antiviral activity against HSV1 infected in african green monkey Vero cells assessed as log reduction in viral titer. Format: functional.
Series [10] has as its system Vesicular stomatitis virus. Nature of the series: Antiviral activity against VSV infected in african green monkey Vero cells assessed as log reduction in viral titer. It counts as functional.
Series [11] in a line: Therapeutic index, ratio of CyD50 for african green monkey Vero cells to ED50 for 10^-3 MOI HSV1. Format: cell-based. Particulars: read-out: TI.
For series [12], the system named is Human alphaherpesvirus 2. The series is described as follows: Antiviral activity against 10^-2 MOI HSV2 infected in african green monkey Vero cells assessed as inhibition of virus-induced cytopathic effect. It counts as functional. Particulars: Human alphaherpesvirus 2, Vero; read-out: ED50 (the source's name).
For series [13], the system named is Poliovirus 2. Nature of the series: Antiviral activity against 10^-3 MOI Poliovirus type 2 infected in african green monkey Vero cells assessed as inhibition of virus-induced cytopathic effect. Format: functional. Particulars: Enterovirus C, read-out: ED50 (the source's name).
A short description of series [14]: Therapeutic index, ratio of CyD50 for african green monkey Vero cells to ED50 for 10^-2 MOI Poliovirus 2. Format: cell-based. Particulars: read-out: TI.
Series [15] relates to Human alphaherpesvirus 2. The series is described as follows: Antiviral activity against HSV2 infected in african green monkey Vero cells assessed as log reduction in viral titer. Format: functional.
Series [16] has as its system Vero. The series is described as follows: Cytotoxicity against african green monkey Vero cells assessed as cell lysis at >200 uM after 96 hrs. Particulars: chlorocebus sabaeus. Format: cell-based.
Series [17] in a line: Therapeutic index, ratio of CyD50 for african green monkey Vero cells to ED50 for 10^-3 MOI VSV. Particulars: read-out: TI. It counts as cell-based.
Series [18] deals with Poliovirus 2. The series is described as follows: Antiviral activity against Poliovirus type 2 infected in african green monkey Vero cells assessed as log reduction in viral titer at 1.12 ug/mL. Format: functional.
The nature of series [19]: Therapeutic index, ratio of CyD50 for african green monkey Vero cells to ED50 for 10^-3 MOI Poliovirus 2. Format: cell-based. Particulars: read-out: TI.
Series [20] in a line: Therapeutic index, ratio of CyD50 for african green monkey Vero cells to ED50 for 10^-3 MOI HSV2. It counts as cell-based. Particulars: read-out: TI.
Series [21] deals with Human alphaherpesvirus 1. The series is described as follows: Antiviral activity against 10^-2 MOI HSV1 infected in african green monkey Vero cells assessed as inhibition of virus-induced cytopathic effect. It counts as functional, organism-based.
The test system of series [22] is Human adenovirus 2. The series is described as follows: Antiviral activity against 10^-3 MOI Human adenovirus 2 infected in african green monkey Vero cells assessed as inhibition of virus-induced cytopathic effect. It counts as functional. Particulars: Human mastadenovirus C, read-out: ED50 (the source's name).
Series [23] has as its system Poliovirus 2. The series is described as follows: Antiviral activity against 10^-2 MOI Poliovirus type 2 infected in african green monkey Vero cells assessed as inhibition of virus-induced cytopathic effect. Format: functional. Particulars: Enterovirus C, read-out: ED50 (the source's name).
The subject of series [24] is Human adenovirus 2. Nature of the series: Antiviral activity against 10^-2 MOI Human adenovirus 2 infected in african green monkey Vero cells assessed as inhibition of virus-induced cytopathic effect. Format: functional. Particulars: Human mastadenovirus C, read-out: ED50 (the source's name).
Series [25] is described as follows: Therapeutic index, ratio of CyD50 for african green monkey Vero cells to ED50 for 10^-2 MOI Human adenovirus 2. Particulars: read-out: TI. It counts as cell-based.
For series [26], the system named is Human alphaherpesvirus 1. The series is described as follows: Antiviral activity against 10^-3 MOI HSV1 infected in african green monkey Vero cells assessed as inhibition of virus-induced cytopathic effect. It counts as functional. Particulars: Human alphaherpesvirus 1, Vero; read-out: ED50 (the source's name).
The subject of series [27] is Human alphaherpesvirus 2. The series is described as follows: Antiviral activity against 10^-3 MOI HSV2 infected in african green monkey Vero cells assessed as inhibition of virus-induced cytopathic effect. It counts as functional. Particulars: Human alphaherpesvirus 2, Vero; read-out: ED50 (the source's name).
Series [28] concerns Poliovirus 2. Nature of the series: Antiviral activity against Poliovirus type 2 infected in african green monkey Vero cells assessed as reduction in viral titer at 5 ug/mL. It counts as functional, organism-based.
In series [29] the test system is Vero. Nature of the series: Cytotoxicity against african green monkey Vero cells assessed as cell lysis at >800 uM after 96 hrs. Particulars: chlorocebus sabaeus. Format: cell-based.

`COc1cc(-c2oc3c(OC)c(OC)cc(O)c3c(=O)c2OC)ccc1O` [TERNATIN]: the Activity result in the series with Vero [1] was “Non-toxic”; with Human adenovirus 2 [2] it was 3; in the series on Vero [8] it was “Non-toxic”; in the series on Human alphaherpesvirus 1 [9], 1; in series [10], 2; with Human alphaherpesvirus 2 [15], 2. Besides, the Activity entry in the series on Vero [16] is listed as “Toxic”; in the series on Poliovirus 2 [18], 5. Also, the pEC50 in series [3] is 4.32; in series [7], 4.42; in the series with Human alphaherpesvirus 2 [12], 4.00; in the series with Poliovirus 2 [13], 5.52; with Human adenovirus 2 [22], 5.00; in the series with Poliovirus 2 [23], 5.40. Further, the pEC50 is 5.00 with Human adenovirus 2 [24], 4.36 with Human alphaherpesvirus 1 [26] and 4.85 with Human alphaherpesvirus 2 [27]. Further, the selectivity ratio is 4.2 in series [4]; 20 in [5]; 2 in [6]; 4.6 in series [11]; 50 in [14]; 5.2 in series [17]. Further, the selectivity ratio was 66.6 in series [19], 14.4 in series [20] and 20 in [25]. Further, the ED50 result with Human alphaherpesvirus 1 [21] was “inactive”.
Consider `COc1c(-c2ccc(O)c(O)c2)oc2cc(O)cc(O)c2c1=O`, for which the result in the series on Poliovirus 2 [28] was Active.
In the case of `COc1c(-c2ccc3c(c2)OCO3)oc2cc3c(c(OC)c2c1=O)OCO3` [MELITERNATIN], the Activity entry in the series on Vero [29] is on record as “Toxic”.
